Drawing on patent publication US20260035364A1, “BICYCLIC TETRAHYDROTHIAZEPINE DERIVATIVES” (Hoffmann-La Roche Inc., priority 2022, published 2026), this text covers Emax, EC50 and IC50 for 17 compounds.

Assay [1] deals with primary human T-cells. Description: T-cell proliferation assay (CellTiter-Glo). The assay is classed as cell-based. Conditions: Homo sapiens, T-cell, 120 h, CD3 condition; for Emax: 5 days, 20 μM reference compound A1 = 100%, read-out: Emax proliferation (% activation); for EC50: proliferation after 5 days, CellTiter-Glo, read-out: Tcell Proliferation CD3 EC50. In short, it runs like this: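 Expanded primary human T-cells (100k/well) on plates coated with CD3 antibody or PBS only, given a 5- or 6-point dose response (top 20 or 10 μM final, 3.333-fold steps, 0.2% DMSO). ATP measured by CellTiter-Glo 2.0 luminescence after 5 days. Normalized to DMSO and 20 μM reference A1 (100%); EC50 and Emax reported for CD3 conditions.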
On the technique in general: Cellular ATP, detected with luciferase, serves as a proxy for viable cell number.

In assay [2] the target is DGKzeta (Homo sapiens, UniProt Q13574). Description: In vitro DGK inhibition assay (ADP-Glo, liposomes), DGKzeta. The assay is classed as biochemical. On the set-up: hDGKzeta(1-928)-N-His; His (N); made in house; host or cells: Sf21 insect cells (baculovirus). Conditions: 2 nM DGK ζ, 50 μM ATP, 125 uM DLG in liposomes, 1 hour reaction. A digest of the protocol: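 DGKζ (2 nM) phosphorylated DLG presented in DLG/PS/PC liposomes (final DLG 125 μM) with 50 μM ATP for 1 hour. ADP formed was read by ADP-Glo luminescence. Compounds were tested as 11-point 1:3 dose responses in 2% final DMSO.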
Chain of DGKzeta (Q13574 whole entry): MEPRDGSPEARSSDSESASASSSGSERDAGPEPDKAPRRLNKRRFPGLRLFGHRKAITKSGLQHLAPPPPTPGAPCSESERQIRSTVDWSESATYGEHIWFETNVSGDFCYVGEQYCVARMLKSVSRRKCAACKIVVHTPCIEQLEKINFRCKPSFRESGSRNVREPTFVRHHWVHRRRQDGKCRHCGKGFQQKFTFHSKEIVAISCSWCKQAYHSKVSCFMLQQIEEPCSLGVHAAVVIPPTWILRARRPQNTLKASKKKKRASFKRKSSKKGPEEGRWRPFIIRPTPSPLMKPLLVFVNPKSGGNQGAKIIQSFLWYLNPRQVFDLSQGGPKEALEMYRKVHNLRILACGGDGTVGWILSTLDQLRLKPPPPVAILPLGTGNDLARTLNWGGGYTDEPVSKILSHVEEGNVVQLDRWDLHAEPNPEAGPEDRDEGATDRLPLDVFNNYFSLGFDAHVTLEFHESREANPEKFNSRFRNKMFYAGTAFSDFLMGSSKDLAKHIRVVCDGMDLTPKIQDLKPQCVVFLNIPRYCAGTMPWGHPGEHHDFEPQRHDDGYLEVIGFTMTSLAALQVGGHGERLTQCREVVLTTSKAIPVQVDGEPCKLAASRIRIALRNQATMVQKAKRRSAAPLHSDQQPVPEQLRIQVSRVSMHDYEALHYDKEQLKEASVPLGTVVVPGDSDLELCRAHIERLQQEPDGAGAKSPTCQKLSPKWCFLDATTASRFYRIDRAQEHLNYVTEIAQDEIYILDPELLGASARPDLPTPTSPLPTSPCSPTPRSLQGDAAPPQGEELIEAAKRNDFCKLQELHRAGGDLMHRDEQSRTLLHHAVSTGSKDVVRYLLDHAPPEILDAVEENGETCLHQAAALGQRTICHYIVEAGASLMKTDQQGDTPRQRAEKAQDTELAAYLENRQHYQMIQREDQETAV

Assay [3] concerns the target DGKalpha (Homo sapiens, UniProt P23743). As to the kind of experiment: In vitro DGK inhibition assay (ADP-Glo, liposomes), DGKalpha. On the set-up: hDGKalpha(1-735)-N-His; His (N); made in house; host or cells: Sf21 insect cells (baculovirus). Conditions: 4 nM DGK α, 25 μM ATP, 125 uM DLG in liposomes, 1 hour reaction. Format: biochemical. In short, it runs like this:
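Full-length human DGKα (4 nM) or DGKζ (2 nM) from Sf21 cells, with DLG substrate at 125 uM in PS/PC liposomes and ATP at 25 μM (α) or 50 μM (ζ); 1 h reaction. ADP formed read by ADP-Glo luminescence; compounds 11-point, 1:3 dilutions from 10 mM, 2% DMSO final.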

A value given as a limit tells only on which side of the number the result lay.

Chain of DGKalpha (P23743 whole entry): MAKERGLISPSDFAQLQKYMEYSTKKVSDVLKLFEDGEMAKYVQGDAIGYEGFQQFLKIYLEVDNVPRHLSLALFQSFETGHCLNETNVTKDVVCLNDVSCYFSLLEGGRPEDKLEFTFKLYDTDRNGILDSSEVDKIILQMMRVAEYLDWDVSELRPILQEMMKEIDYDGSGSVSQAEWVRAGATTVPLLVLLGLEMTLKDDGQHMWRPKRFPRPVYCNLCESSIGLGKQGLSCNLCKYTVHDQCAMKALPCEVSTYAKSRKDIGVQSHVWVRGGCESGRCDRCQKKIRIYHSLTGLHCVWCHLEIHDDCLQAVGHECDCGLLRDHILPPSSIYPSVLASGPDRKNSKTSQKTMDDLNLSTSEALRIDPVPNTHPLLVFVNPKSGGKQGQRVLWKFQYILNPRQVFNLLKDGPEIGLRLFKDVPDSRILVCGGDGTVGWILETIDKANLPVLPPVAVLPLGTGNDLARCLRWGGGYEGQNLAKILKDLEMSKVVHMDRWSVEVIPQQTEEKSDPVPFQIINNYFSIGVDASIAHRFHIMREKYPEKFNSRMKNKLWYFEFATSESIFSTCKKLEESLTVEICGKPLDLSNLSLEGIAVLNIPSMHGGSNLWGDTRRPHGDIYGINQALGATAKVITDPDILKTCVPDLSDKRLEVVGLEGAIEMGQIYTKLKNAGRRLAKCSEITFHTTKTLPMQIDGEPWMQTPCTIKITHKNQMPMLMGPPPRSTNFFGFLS

Consider `COc1cccc(-c2ccc(CN3C(=O)[C@@H](N)CS(=O)(=O)c4ccc(-c5nnc(C(C)(C)S(C)(=O)=O)o5)cc43)cc2)c1` [Example 22, (3R)-3-amino-5-[[4-(3-methoxyphenyl)phenyl]methyl]-7-[5-(1-methyl-1-methylsulfonyl-ethyl)-1,3,4-oxadiazol-2-yl]-1,1-dioxo-2,3-dihydro-1λ6,5-benzothiazepin-4-one], for which, in assay [1], the Emax stood at 47% and the EC50 was greater than 10 µM. Further, 1.64 µM corresponded to half-maximal inhibition in assay [2] (IC50). The IC50 (as a rule, the concentration at which inhibition is half-maximal) in assay [3] was greater than 62.5 µM.
Turning to `CC(C)(c1nnc(-c2ccc3c(c2)N(Cc2ccc(OCCC(F)(F)F)cc2)C(=O)[C@@H](N)CS3(=O)=O)o1)S(C)(=O)=O` [Example 23, (3R)-3-amino-7-[5-(1-methyl-1-methylsulfonyl-ethyl)-1,3,4-oxadiazol-2-yl]-1,1-dioxo-5-[[4-(3,3,3-trifluoropropoxy)phenyl]methyl]-2,3-dihydro-1λ6,5-benzothiazepin-4-one], in assay [1], the Emax is 79% and the EC50 was found to be 4.54 µM. The same compound had an IC50 in assay [2] of 1.26 µM. Besides, half-maximal inhibition in assay [3] (IC50) required 3.08 µM.
For `CC(C)(c1nnc(-c2cc3c(cc2F)S(=O)(=O)C[C@H](N)C(=O)N3Cc2ccc(OCC(F)(F)F)cc2)o1)S(C)(=O)=O` [Example 24, (3R)-3-amino-8-fluoro-7-[5-(1-methyl-1-methylsulfonyl-ethyl)-1,3,4-oxadiazol-2-yl]-1,1-dioxo-5-[[4-(2,2,2-trifluoroethoxy)phenyl]methyl]-2,3-dihydro-1λ6,5-benzothiazepin-4-one], in assay [1], the Emax was found to be 104% and the EC50 came out at 0.475 µM. The compound also had an IC50 in assay [2] of 0.503 µM. For the same compound, half-maximal inhibition in assay [3] (IC50) was put at 0.431 µM.
As to `CC(C)(c1nnc(-c2cc3c(cc2F)S(=O)(=O)C[C@H](N)C(=O)N3Cc2ccc(OC(F)(F)C(F)F)cc2)o1)S(C)(=O)=O` [Example 26, (3R)-3-amino-8-fluoro-7-[5-(1-methyl-1-methylsulfonyl-ethyl)-1,3,4-oxadiazol-2-yl]-1,1-dioxo-5-[[4-(1,1,2,2-tetrafluoroethoxy)phenyl]methyl]-2,3-dihydro-1λ6,5-benzothiazepin-4-one], the Emax in assay [1] came out at 122%. Moreover, the EC50 in assay [1] turned out to be 0.573 µM. The IC50 in assay [2] was determined as 0.37 µM; in assay [3] it was 0.447 µM.
The like results for `CC(C)(c1nnc(-c2cc3c(cc2F)S(=O)(=O)C[C@H](N)C(=O)N3Cc2ccc(Oc3ccccc3)cc2)o1)S(C)(=O)=O` [Example 27, (3R)-3-amino-8-fluoro-7-[5-(1-methyl-1-methylsulfonyl-ethyl)-1,3,4-oxadiazol-2-yl]-1,1-dioxo-5-[(4-phenoxyphenyl)methyl]-2,3-dihydro-1λ6,5-benzothiazepin-4-one] were, in that order, 136%, 0.863 µM, 0.657 µM and 0.483 µM.
For `COc1ccc(-c2ccc(CN3C(=O)[C@@H](N)CS(=O)(=O)c4cc(F)c(-c5nnc(C(C)(C)S(C)(=O)=O)o5)cc43)cc2)cc1` [Example 29, (3R)-3-amino-8-fluoro-5-[[4-(4-methoxyphenyl)phenyl]methyl]-7-[5-(1-methyl-1-methylsulfonyl-ethyl)-1,3,4-oxadiazol-2-yl]-1,1-dioxo-2,3-dihydro-1λ6,5-benzothiazepin-4-one], the Emax in assay [1] was determined as 108%. The EC50 in assay [1] came out at 0.055 µM. Besides, the IC50 is 0.251 µM in assay [2] and 0.534 µM in assay [3].
Consider `CC(C)(c1nc(-c2cc3c(cc2F)S(=O)(=O)C[C@H](N)C(=O)N3Cc2ccc(Oc3ccccc3)cc2)no1)S(C)(=O)=O` [Example 30, (3R)-3-amino-8-fluoro-7-[5-(1-methyl-1-methylsulfonyl-ethyl)-1,2,4-oxadiazol-3-yl]-1,1-dioxo-5-[(4-phenoxyphenyl)methyl]-2,3-dihydro-1λ6,5-benzothiazepin-4-one], for which, in assay [1], the Emax worked out at 225% and the EC50 is 0.127 µM. This compound also came in with an IC50 in assay [2] of 0.309 µM. Besides, inhibition in assay [3] was half-maximal at 0.815 µM (IC50).
For `Cc1cccc(Oc2ccc(CN3C(=O)[C@@H](N)CS(=O)(=O)c4ccc(-c5nnc(C(C)(C)S(C)(=O)=O)o5)cc43)cc2)c1` [Example 31], in assay [1], the Emax was found to be 106% and the EC50 was determined as 0.599 µM. In assay [2], this compound displayed an IC50 of 0.455 µM. Besides, the IC50 in assay [3] was 1.78 µM.
Regarding `CC(C)(c1nnc(-c2ccc3c(c2)N(Cc2ccc(Oc4cccc(Cl)c4Cl)cc2)C(=O)[C@@H](N)CS3(=O)=O)o1)S(C)(=O)=O` [Example 32, (3R)-3-amino-5-[[4-(2,3-dichlorophenoxy)phenyl]methyl]-7-[5-(1-methyl-1-methylsulfonyl-ethyl)-1,3,4-oxadiazol-2-yl]-1,1-dioxo-2,3-dihydro-1λ6,5-benzothiazepin-4-one], in assay [1], the Emax was found to be 75% and the EC50 is 0.356 µM. Further, the IC50 in assay [2] was 0.893 µM. This compound came in with an IC50 in assay [3] of 13.4 µM.
On to `CC(C)(c1nnc(-c2ccc3c(c2)N(Cc2ccc(Oc4cccc(F)c4)cc2)C(=O)[C@@H](N)CS3(=O)=O)o1)S(C)(=O)=O` [Example 33, (3R)-3-amino-5-[[4-(3-fluorophenoxy)phenyl]methyl]-7-[5-(1-methyl-1-methylsulfonyl-ethyl)-1,3,4-oxadiazol-2-yl]-1,1-dioxo-2,3-dihydro-1λ6,5-benzothiazepin-4-one], for which, in assay [1], the Emax turned out to be 82% and the EC50 came out at 0.645 µM. The compound also registered an IC50 in assay [2] of 0.539 µM. The compound further displayed an IC50 in assay [3] of 4.75 µM.
On to `CC(C)(c1nnc(-c2ccc3c(c2)N(Cc2ccc(Oc4cccc(Cl)c4)cc2)C(=O)[C@@H](N)CS3(=O)=O)o1)S(C)(=O)=O` [Example 34, (3R)-3-amino-5-[[4-(3-chlorophenoxy)phenyl]methyl]-7-[5-(1-methyl-1-methylsulfonyl-ethyl)-1,3,4-oxadiazol-2-yl]-1,1-dioxo-2,3-dihydro-1λ6,5-benzothiazepin-4-one], for which the Emax in assay [1] came to 127%. The EC50 in assay [1] was 1.27 µM. Further, the IC50 was determined as 1.1 µM in assay [2] and 20.3 µM in assay [3].
Regarding `CC(C)(c1nnc(-c2cc3c(cc2F)S(=O)(=O)C[C@H](N)C(=O)N3Cc2ccc(-c3ccc(C(F)(F)F)cc3)cc2)o1)S(C)(=O)=O` [Example 35, (3R)-3-amino-8-fluoro-7-[5-(1-methyl-1-methylsulfonyl-ethyl)-1,3,4-oxadiazol-2-yl]-1,1-dioxo-5-[[4-[4-(trifluoromethyl)phenyl]phenyl]methyl]-2,3-dihydro-1λ6,5-benzothiazepin-4-one], the Emax in assay [1] was 164%. For the same compound, in assay [1], the EC50 is less than 0.015 µM. The IC50 in assay [2] is 0.649 µM; in assay [3] it was 1.22 µM.
Regarding `CC(C)(c1nnc(-c2cc3c(cc2F)S(=O)(=O)C[C@H](N)C(=O)N3Cc2ccc(-c3ccc(C(F)(F)F)nc3)cc2)o1)S(C)(=O)=O` [Example 36], the Emax in assay [1] was found to be 112%. Also, the EC50 in assay [1] is 1.68 µM. Besides, the IC50 in assay [2] amounted to 0.414 µM; in assay [3] it was 1.59 µM.
Regarding `CC(C)(c1nnc(-c2ccc3c(c2)N(Cc2ccc(Oc4ccc(F)c(Cl)c4)cc2)C(=O)[C@@H](N)CS3(=O)=O)o1)S(C)(=O)=O` [Example 37, (3R)-3-amino-5-[[4-(3-chloro-4-fluoro-phenoxy)phenyl]methyl]-7-[5-(1-methyl-1-methylsulfonyl-ethyl)-1,3,4-oxadiazol-2-yl]-1,1-dioxo-2,3-dihydro-1λ6,5-benzothiazepin-4-one], in assay [1], the Emax was found to be 115% and the EC50 is 1.29 µM. It took 0.414 µM to reach half-maximal inhibition in assay [2] (IC50). In addition, in assay [3], it took 11.1 µM to reach half-maximal inhibition (IC50).
As for `CC(C)(c1nnc(-c2ccc3c(c2)N(Cc2ccc(Oc4cccc(C(F)(F)F)c4)cc2)C(=O)[C@@H](N)CS3(=O)=O)o1)S(C)(=O)=O` [Example 38], in assay [1], the Emax was 130% and the EC50 is 0.623 µM. In assay [2], this compound returned an IC50 of 1.28 µM. This compound also yielded an IC50 in assay [3] of 3.23 µM.
For `CC(C)(c1nnc(-c2ccc3c(c2)N(Cc2ccc(Oc4cc(F)cc(C(F)(F)F)c4)cc2)C(=O)[C@@H](N)CS3(=O)=O)o1)S(C)(=O)=O` [Example 39] the same measures were 108%, 1.33 µM, 2.63 µM and 34.9 µM.
The like results for `CC(C)(c1nnc(-c2ccc3c(c2)N(Cc2ccc(Oc4cccc(OC(F)(F)F)c4)cc2)C(=O)[C@@H](N)CS3(=O)=O)o1)S(C)(=O)=O` [Example 40, (3R)-3-amino-7-[5-(1-methyl-1-methylsulfonyl-ethyl)-1,3,4-oxadiazol-2-yl]-1,1-dioxo-5-[[4-[3-(trifluoromethoxy)phenoxy]phenyl]methyl]-2,3-dihydro-126,5-benzothiazepin-4-one] were, in that order, 148%, 0.903 µM, 0.893 µM and 1.97 µM.
